Laboratory results from patent US10561666B2, “Amido compounds as RORγt modulators and uses thereof” (New York University, priority 2010, dated 2020).

Target: RORγt (Mus musculus, UniProt P51450, T352K)
Assay: RORγt S2 cell Gal4-luciferase reporter assay
Conditions: for Emax: read-out: Efficacy (%)
[1] = IC50(μM), Drosophila S2 cells, Gal4-RORγt luciferase reporter, 20 hr
[2] = S2 cell RORg IC50 μM, S2 cell reporter assay, listed for comparison

RORγt, sequence (P51450 with tags, fused parts or gaps T352K): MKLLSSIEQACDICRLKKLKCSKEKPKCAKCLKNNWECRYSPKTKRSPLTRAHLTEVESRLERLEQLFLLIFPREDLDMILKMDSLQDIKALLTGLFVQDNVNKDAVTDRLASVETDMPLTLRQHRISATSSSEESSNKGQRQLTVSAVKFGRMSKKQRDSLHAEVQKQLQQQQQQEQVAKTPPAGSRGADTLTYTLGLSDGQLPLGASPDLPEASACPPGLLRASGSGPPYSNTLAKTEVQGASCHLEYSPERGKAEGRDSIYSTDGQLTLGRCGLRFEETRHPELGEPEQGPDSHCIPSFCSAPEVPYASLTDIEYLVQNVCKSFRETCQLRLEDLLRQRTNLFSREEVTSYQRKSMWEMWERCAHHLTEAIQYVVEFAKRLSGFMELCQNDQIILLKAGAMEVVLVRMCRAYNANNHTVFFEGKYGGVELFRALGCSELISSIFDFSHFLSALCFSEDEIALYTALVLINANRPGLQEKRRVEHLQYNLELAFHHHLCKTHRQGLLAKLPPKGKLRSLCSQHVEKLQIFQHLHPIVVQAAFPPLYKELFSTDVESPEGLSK

IC50 [1] [µM]	Emax [%]	Molecule	also measured
11 to 50	66	COc1cc(O)c(C(CC(=O)N2CCCC(C#N)C2)c2ccc3c(c2)OCO3)c(OC)c1 (stereo not shown) [Compound 6]	–
> 50	–	CCC(=O)C1CCCN(C(=O)CC(c2ccc3c(c2)OCO3)c2c(O)cc(OC)cc2OC)C1 (stereo not shown) [Compound 13]	–
11 to 50	70.1	COc1cc(O)c(C(CC(=O)N2CCCC(c3ccccc3)C2)c2ccc3c(c2)OCO3)c(OC)c1 (stereo not shown) [Compound 14]	–
> 50	–	COc1cc(O)c(C(CC(=O)N2CCCC(CN3CCCCC3)C2)c2ccc3c(c2)OCO3)c(OC)c1 (stereo not shown) [Compound 15]	–
> 50	–	COc1cc(O)c(C(CC(=O)N2CCCC(C(=O)N3CCCCC3)C2)c2ccc3c(c2)OCO3)c(OC)c1 (stereo not shown) [Compound 17]	–
11 to 50	47.5	COc1cc(O)c(C(CC(=O)N2CCCC(COc3ccc(F)cc3)C2)c2ccc3c(c2)OCO3)c(OC)c1 (stereo not shown) [Compound 19]	–
> 50	–	COc1cc(O)c(C(CC(=O)NCc2ccccc2)c2ccc3c(c2)OCO3)c(OC)c1 (stereo not shown) [Compound 21]	–
11 to 50	80.7	COc1cc(O)c(C(CC(=O)N2CCc3ccccc3C2)c2ccc3c(c2)OCO3)c(OC)c1 (stereo not shown) [Compound 27]	–
> 50	–	COc1cc(O)c(C(CC(=O)N(C)c2cccc(C)c2)c2ccc3c(c2)OCO3)c(OC)c1 (stereo not shown) [Compound 28]	–
> 50	–	COc1cc(O)c(C(CC(=O)N(Cc2ccccc2)Cc2ccccc2)c2ccc3c(c2)OCO3)c(OC)c1 (stereo not shown) [Compound 33]	–
> 50	–	COc1cc(O)c(C(CC(=O)N[C@H](C)c2ccccc2)c2ccc3c(c2)OCO3)c(OC)c1 (stereo partly shown) [Compound 34]	–
> 50	–	COc1cc(O)c(C(CC(=O)N2CCN(c3ccc(F)cc3)CC2)c2ccc3c(c2)OCO3)c(OC)c1 (stereo not shown) [Compound 40]	–
> 50	–	Cc1ccc(O)c(C(CC(=O)NC2CCCCC2)c2ccccc2)c1 (stereo not shown) [Compound 47]	–
> 50	–	Cc1cccc(C(CC(=O)NCc2ccco2)c2ccccc2)c1O (stereo not shown) [Compound 49]	–
> 50	–	COc1ccccc1C(CC(=O)Nc1ccc(F)cc1)c1ccccc1 (stereo not shown) [Compound 50]	–
> 50	–	COc1ccc(C(CC(=O)N2CCCC(C)C2)c2ccccc2)cc1 (stereo not shown) [Compound 51]	–
> 50	–	COc1ccccc1C(CC(=O)N1C[C@H](C)C[C@H](C)C1)c1ccccc1 (stereo partly shown) [Compound 55]	IC50 [2]: > 20 µM
> 50	–	COc1cc(O)c(C(CC(=O)N2CCCC(C)C2)c2ccccc2OC)c(OC)c1 (stereo not shown) [Compound 59]	IC50 [2]: > 20 µM
1 to 10	99.3	COc1cc(O)c(C(CC(=O)N2CCCC(C)C2)c2ccc(C(C)C)cc2)c(OC)c1 (stereo not shown) [Compound 64]	IC50 [2]: 1 to 10 µM
> 50	–	COc1cc(O)c(CCC(=O)N2CCCC(C)C2)c(OC)c1 (stereo not shown) [Compound 71]	–
< 1	96.6	COc1cc(O)c(C(CC(=O)N2CC(C)CC(C)C2)c2cccc(C#N)c2)c(OC)c1 (stereo not shown) [Compound 87, 3-(3-(3,5-Dimethylpiperidin-1-yl)-1-(2-hydroxy-4,6-dimethoxyphenyl)-3-oxopropyl)benzonitrile]	–
1 to 10	99.1	COc1cc(O)c(C(CC(=O)N2CC(C)CC(C)C2)c2ccc(CN3CCOCC3)cc2)c(OC)c1 (stereo not shown) [Compound 90]	–
1 to 10	92.6	COc1cc(O)c(C(CC(=O)N2CC(C)CC(C)C2)c2cccc(OCc3ccccc3)c2)c(OC)c1 (stereo not shown) [Compound 91]	–
1 to 10	94.6	COc1cc(O)c(C(CC(=O)N2CC(C)CC(C)C2)c2ccc(OCc3ccccc3)cc2)c(OC)c1 (stereo not shown) [Compound 92]	–

Further lines, the molecule ahead of its results:

Molecule	IC50 [1] [µM]	Emax [%]	also measured
1-(3,5-Dimethylpiperidin-1-yl)-3-(2-hydroxy-4,6-dimethoxyphenyl)-3-(3-(methylsulfonyl)phenyl)propan-1-one [Compound 83]	–	–	Efficacy (%) (% of the maximal response of control inhibitor (Digoxin), set at 100%): −93.79%; IC50 (Drosophila S2 cells, Gal4-RORγt luciferase reporter, 20 hr): 1 to 10 µM
COc1cc(O)c(C(CC(=O)N2CCCC(C)C2)c2ccc3c(c2)OCO3)c(OC)c1 (stereo not shown) [Compound 3]	1 to 10	98.8	–
COc1cc(O)c(C(CC(=O)N2CCOCC2)c2ccc3c(c2)OCO3)c(OC)c1 (stereo not shown) [Compound 4]	11 to 50	20.2	–
COc1cc(O)c(C(CC(=O)N2CCCCC2)c2ccc3c(c2)OCO3)c(OC)c1 (stereo not shown) [Compound 5]	11 to 50	90.4	–
CCC1CCCN(C(=O)CC(c2ccc3c(c2)OCO3)c2c(O)cc(OC)cc2OC)C1 (stereo not shown) [Compound 7]	1 to 10	96.2	–
CCCC1CCN(C(=O)CC(c2ccc3c(c2)OCO3)c2c(O)cc(OC)cc2OC)C1 (stereo not shown) [Compound 9]	11 to 50	63.5	–
CCC1(CC)CCN(C(=O)CC(c2ccc3c(c2)OCO3)c2c(O)cc(OC)cc2OC)C1 (stereo not shown) [Compound 10]	11 to 50	89	–
COc1cc(O)c(C(CC(=O)N2CCCC(C(C)C)C2)c2ccc3c(c2)OCO3)c(OC)c1 (stereo not shown) [Compound 11]	11 to 50	102	–
COCC1CCCN(C(=O)CC(c2ccc3c(c2)OCO3)c2c(O)cc(OC)cc2OC)C1 (stereo not shown) [Compound 12]	11 to 50	90.4	–
COc1cc(O)c(C(CC(=O)N2CCCC(C(=O)c3ccccc3)C2)c2ccc3c(c2)OCO3)c(OC)c1 (stereo not shown) [Compound 16]	> 50	–	–
COc1cc(O)c(C(CC(=O)N2CCCC(c3nc4ccccc4o3)C2)c2ccc3c(c2)OCO3)c(OC)c1 (stereo not shown) [Compound 18]	11 to 50	90.6	–
COc1cc(O)c(C(CC(=O)N2CCCC(CO)C2)c2ccc3c(c2)OCO3)c(OC)c1 (stereo not shown) [Compound 20]	11 to 50	44.7	–
COc1cc(O)c(C(CC(=O)NC2CCC(C)CC2)c2ccc3c(c2)OCO3)c(OC)c1 (stereo not shown) [Compound 23]	11 to 50	76.8	–
COc1cc(O)c(C(CC(=O)NCC2CCCCC2)c2ccc3c(c2)OCO3)c(OC)c1 (stereo not shown) [Compound 24]	> 50	–	–
COc1cc(O)c(C(CC(=O)NC2CCCc3ccccc32)c2ccc3c(c2)OCO3)c(OC)c1 (stereo not shown) [Compound 26]	> 50	–	–
COc1cc(O)c(C(CC(=O)Nc2ccc(C)cc2)c2ccc3c(c2)OCO3)c(OC)c1 (stereo not shown) [Compound 29]	> 50	–	–
COc1cc(O)c(C(CC(=O)Nc2cccc3ccccc23)c2ccc3c(c2)OCO3)c(OC)c1 (stereo not shown) [Compound 31]	> 50	–	–
COc1cc(O)c(C(CC(=O)N2CCc3ccccc32)c2ccc3c(c2)OCO3)c(OC)c1 (stereo not shown) [Compound 32]	> 50	–	–
COc1cc(O)c([C@H](CC(=O)N2CC(C)CC(C)C2)c2ccc3c(c2)OCO3)c(OC)c1 (stereo partly shown) [Compound 36]	–	91	–
COc1cc(O)c(C(CC(=O)N2CCCC2)c2ccc3c(c2)OCO3)c(OC)c1 (stereo not shown) [Compound 37]	11 to 50	27.1	–

Molecule	IC50 [1] [µM]	Emax [%]	also measured
CCN(CC)C(=O)CC(c1ccc2c(c1)OCO2)c1c(O)cc(OC)cc1OC (stereo not shown) [Compound 39]	11 to 50	64.9	–
COc1cc(O)c(C(CC(=O)N2CCC(Cc3ccccc3)CC2)c2ccc(C)cc2)c(OC)c1 (stereo not shown) [Compound 44]	> 50	–	–
COc1cc(O)c(C(CC(=O)N2CCC(c3ccccc3)CC2)c2ccc(OC)c(OC)c2)c(OC)c1 (stereo not shown) [Compound 45]	> 50	–	–
COc1ccc(C(CC(=O)Nc2ccc(F)cc2)c2ccccc2)cc1 (stereo not shown) [Compound 46]	> 50	–	–
Cc1cccc(C(CC(=O)NCCc2ccccc2)c2ccccc2)c1O (stereo not shown) [Compound 48]	> 50	–	–
COc1ccccc1C(CC(=O)N1CCCC(C)C1)c1ccccc1 (stereo not shown) [Compound 52]	> 50	–	–
CC1CCCN(C(=O)CC(c2ccccc2)c2ccc(O)cc2)C1 (stereo not shown) [Compound 53]	> 50	–	–
CC1CCCN(C(=O)CC(c2ccccc2)c2ccccc2O)C1 (stereo not shown) [Compound 54]	> 50	–	–
COc1ccccc1C(CC(=O)N1CCCCC1)c1ccccc1 (stereo not shown) [Compound 56]	1 to 10	30.5	–
COc1cc(O)c(C(CC(=O)N2CCCC(C)C2)c2ccc(OC)c(OC)c2)c(OC)c1 (stereo not shown) [Compound 58]	11 to 50	98.2	–
CCOc1ccc(C(CC(=O)N2CCCC(C)C2)c2c(O)cc(OC)cc2OC)cc1 (stereo not shown) [Compound 62]	1 to 10	100	–
COc1cc(O)c(C(CC(=O)N2CCCC(C)C2)c2ccc3ccccc3c2)c(OC)c1 (stereo not shown) [Compound 65]	1 to 10	92.4	IC50 [2]: 1 to 10 µM
COc1cc(O)c(C(CC(=O)N2CCCC(C)C2)c2cccc3ccccc23)c(OC)c1 (stereo not shown) [Compound 66]	11 to 50	52	IC50 [2]: 11 to 20 µM
COc1cc(O)c(C(CC(=O)N2CCCC(C)C2)c2ccc(-c3ccccc3)cc2)c(OC)c1 (stereo not shown) [Compound 67]	11 to 50	72	IC50 [2]: 11 to 20 µM
CC1CCCN(C(=O)CC(c2ccc3c(c2)OCO3)c2ccc3ccccc3c2O)C1 (stereo not shown) [Compound 68]	> 50	–	–
COc1cc(O)c(C(CC(=O)N2CC(C)CC(C)C2)c2ccc3c(c2)OCCCO3)c(OC)c1 (stereo not shown) [Compound 80]	< 1	94	–
COc1cc(O)c(C(CC(=O)N2CC(C)CC(C)C2)c2ccc(S(=O)(=O)N(C)C)cc2)c(OC)c1 (stereo not shown) [Compound 84, 4-(3-(3,5-Dimethylpiperidin-1-yl)-1-(2-hydroxy-4,6-dimethoxyphenyl)-3-oxopropyl)-N,N-dimethylbenzenesulfonamide]	11 to 50	–	–
COc1cc(O)c(C(CC(=O)N2CC(C)CC(C)C2)c2cccc(Br)c2)c(OC)c1 (stereo not shown) [Compound 85, 3-(3-Bromophenyl)-1-(3,5-dimethylpiperidin-1-yl)-3-(2-hydroxy-4,6-dimethoxyphenyl)propan-1-one]	1 to 10	103	–
COc1cc(O)c(C(CC(=O)N2CC(C)CC(C)C2)c2ccc(Cl)c(Cl)c2)c(OC)c1 (stereo not shown) [Compound 88, 3-(3,4-Dichlorophenyl)-1-(3,5-dimethylpiperidin-1-yl)-3-(2-hydroxy-4,6-dimethoxyphenyl)propan-1-one]	1 to 10	97.2	–
COc1cc(O)c(C(CC(=O)N2CC(C)CC(C)C2)c2ccc(C(C)(C)C)cc2)c(OC)c1 (stereo not shown) [Compound 89, 3-(4-tert-Butylphenyl)-1-(3,5-dimethylpiperidin-1-yl)-3-(2-hydroxy-4,6-dimethoxyphenyl)propan-1-one]	1 to 10	95.4	–
